Experiment [1] concerns the target T1, PRMT5 (Homo sapiens, UniProt O14744).
T1 construct: purchased Viva (custom protein)
Description: PRMT5 biochemical IC50 assay with no cofactor. Particulars: PRMT5, no cofactor. The source says:
Table 1 indicates IC50 values (μM) against PRMT5 for exemplary compounds in the presence of SAM as cofactor, with no cofactor, and with MTA as cofactor, respectively (columns 4-6). […] Ki values can be calculated from the IC50 values as described in the Examples section. As detailed in the Examples section, for the assay performed in the presence of SAM, IC50=Ki×1.5 (Ki=IC50/1.5).

Experiment [2] relates to HAP1 MTAP-deleted cell line. Description: SDMA in-cell western assay, HAP1 MTAP-deleted. It counts as cell-based. The note with it: for IC50: Homo sapiens, HAP1, SDMA in-cell western, HAP1 MTAP-deleted; for MTAP intact/deleted ratio: IC50 ratio HAP1 MTAP-intact / HAP1 MTAP-deleted, SDMA in-cell western. A digest of the protocol: (§1)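 IC50 values come from SDMA signal quantified by in-cell western in two HAP1 lines, one with native MTAP levels and one lacking MTAP.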

Experiment [3] concerns the target T1, PRMT5. Description: PRMT5 biochemical IC50 assay with MTA as cofactor. The note with it: PRMT5, MTA as cofactor; read-out: MTA IC50.
For experiment [4], the target named is T1, PRMT5. Description: PRMT5 biochemical IC50 assay with SAM as cofactor. The note with it: PRMT5, SAM as cofactor; read-out: SAM IC50.
Experiment [5] has as its system HAP1 MTAP-intact cell line. Description: SDMA in-cell western assay, HAP1 MTAP-intact. It counts as cell-based. Particulars: Homo sapiens, HAP1, SDMA in-cell western, HAP1 MTAP-intact; read-out: MTAP HAP1 intact IC50. A digest of the protocol:
as §1

The test system of experiment [6] is HAP1 MTAP-deleted cell line. Description: Viability assay, MTAP-deleted cell line. Particulars: Homo sapiens, HAP1, viability assay, MTAP-deleted cell line; read-out: HAP1 MTAP deleted viability. It counts as cell-based. The source says:
Table 1 additionally indicates IC50 values in a viability assay for the MTAP-deleted cell line (column 10), indicating the effect of treatment with compound on cell survival.

The mark [7] stands for this setting: read-out: No Cofactor/ rel IC50.
Setting [8] is: read-out: HAP 1 MTAP deleted IC50.
Setting [9] is: read-out: HAP1 MTAP deleted IC50.

Bounds are passed on as bounds.

T1 sequence (O14744 whole entry): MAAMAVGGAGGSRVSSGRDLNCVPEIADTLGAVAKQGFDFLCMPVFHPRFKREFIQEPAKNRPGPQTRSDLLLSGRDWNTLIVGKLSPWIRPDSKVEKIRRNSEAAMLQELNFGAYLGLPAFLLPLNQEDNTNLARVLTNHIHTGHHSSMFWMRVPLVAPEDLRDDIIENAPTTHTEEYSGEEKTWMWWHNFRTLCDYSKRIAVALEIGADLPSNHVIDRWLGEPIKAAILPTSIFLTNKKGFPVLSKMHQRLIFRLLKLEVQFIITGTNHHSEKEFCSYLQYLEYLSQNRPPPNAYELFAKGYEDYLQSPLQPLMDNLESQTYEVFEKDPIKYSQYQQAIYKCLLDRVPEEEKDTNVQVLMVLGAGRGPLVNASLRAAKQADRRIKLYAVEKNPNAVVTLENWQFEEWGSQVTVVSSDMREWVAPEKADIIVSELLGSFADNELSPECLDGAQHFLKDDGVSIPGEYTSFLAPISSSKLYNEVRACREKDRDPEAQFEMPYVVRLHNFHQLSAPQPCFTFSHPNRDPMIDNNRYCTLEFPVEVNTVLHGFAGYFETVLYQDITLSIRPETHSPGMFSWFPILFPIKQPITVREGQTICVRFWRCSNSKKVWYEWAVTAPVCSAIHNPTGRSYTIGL
T1 sequence (Q9BQA1 whole entry partner): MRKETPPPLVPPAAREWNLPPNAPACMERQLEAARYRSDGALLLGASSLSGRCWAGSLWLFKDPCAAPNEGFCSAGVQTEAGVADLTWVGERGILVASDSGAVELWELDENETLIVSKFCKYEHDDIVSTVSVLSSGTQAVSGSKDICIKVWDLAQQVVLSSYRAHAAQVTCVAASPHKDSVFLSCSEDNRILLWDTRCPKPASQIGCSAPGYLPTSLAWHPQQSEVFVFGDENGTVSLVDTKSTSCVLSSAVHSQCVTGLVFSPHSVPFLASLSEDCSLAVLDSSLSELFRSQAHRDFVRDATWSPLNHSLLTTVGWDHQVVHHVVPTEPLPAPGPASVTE

Turning to `Cc1cc(NC(=O)C(=O)N2C[C@H](C)CC[C@H]2C)cnc1N` (racemic) [Compound 158, N-(6-amino-5-methyl-3-pyridyl)-2-[(2R,5R)-2,5-dimethyl-1-piperidyl]-2-oxo-acetamide], the IC50 in experiment [1] (setting [7]) is 50 to 500 nM; in experiment [2] (setting [8]) it was above 1000 nM; in experiment [3], 50 to 500 nM; in experiment [4], 50 to 500 nM; in experiment [5], above 1000 nM; in experiment [6], above 10000 nM. Further, the “MTAP intact/deleted ratio” value in experiment [2] is “C (an IC50 ratio of less than 3 fold)”.

On to `Cc1ccc([C@@H]2CC[C@@H](C)CN2C(=O)C(=O)Nc2cncc(C(N)=O)c2)cc1F` (racemic) [Compound 162, rac-5-{2-[(2R,5S)-2-(3-Fluoro-4-methylphenyl)-5-methylpiperidin-1-yl]-2-oxoacetamido}pyridine-3-carboxamide], for which the IC50 in experiment [1] (setting [7]) was 50 to 500 nM; in experiment [2] (setting [8]), below 100 nM; in experiment [3], below 50 nM; in experiment [4] it was 50 to 500 nM; in experiment [5], above 1000 nM; in experiment [6] it was 1000 to 10000 nM. Moreover, the “MTAP intact/deleted ratio” value in experiment [2] is “A (an IC50 ratio greater than or equal to 10 fold)”.

`C[C@@H]1CC[C@H](c2ccccc2)N(C(=O)C(=O)Nc2cncc(C(N)=O)c2)[C@@H]1C` (racemic) [Compound 163, rac-5-[[2-[(2R,3R,6R)-2,3-dimethyl-6-phenyl-1-piperidyl]-2-oxo-acetyl]amino]pyridine-3-carboxamide]: the IC50 is 50 to 500 nM in experiment [1] (setting [7]); 100 to 1000 nM in experiment [2] (setting [8]); below 50 nM in experiment [3]; 50 to 500 nM in experiment [4]; above 1000 nM in experiment [5]; above 10000 nM in experiment [6]. The “MTAP intact/deleted ratio” value in experiment [2] is recorded as “A (an IC50 ratio greater than or equal to 10 fold)”.

For the compound `Cc1cc(NC(=O)C(=O)N2C[C@H](C)CC[C@H]2C(C)C)cnc1N` (racemic) [Compound 165, N-(6-amino-5-methyl-3-pyridyl)-2-[(2S,5R)-2-isopropyl-5-methyl-1-piperidyl]-2-oxo-acetamide], the IC50 in experiment [1] (setting [7]) was 50 to 500 nM; in experiment [2] (setting [8]), 100 to 1000 nM; in experiment [3] it was below 50 nM; in experiment [4], 50 to 500 nM; in experiment [5], above 1000 nM; in experiment [6] it was above 10000 nM. The “MTAP intact/deleted ratio” value in experiment [2] is “A (an IC50 ratio greater than or equal to 10 fold)”.

Regarding `Cc1ccc2cc([C@@H]3CC[C@@H](C)CN3C(=O)C(=O)Nc3cncc(C(N)=O)c3)ccc2n1` (racemic) [Compound 167, rac-5-{2-[(2R,5S)-5-Methyl-2-(2-methylquinolin-6-yl)piperidin-1-yl]-2-oxoacetamido}pyridine-3-carboxamide], the IC50 in experiment [1] (setting [7]) is 50 to 500 nM; in experiment [2] (setting [8]), 100 to 1000 nM; in experiment [3] it was below 50 nM; in experiment [4], 50 to 500 nM; in experiment [5] it was above 1000 nM; in experiment [6], 1000 to 10000 nM. In experiment [2], the “MTAP intact/deleted ratio” value was “A (an IC50 ratio greater than or equal to 10 fold)”.

`Cc1cc(NC(=O)C(=O)N2C[C@H](C)CC[C@@H]2C)cnc1N` (racemic) [Compound 168, N-(6-amino-5-methyl-3-pyridyl)-2-[(2S,5R)-2,5-dimethyl-1-piperidyl]-2-oxo-acetamide]: the IC50 in experiment [1] (setting [7]) is 50 to 500 nM; in experiment [2] (setting [8]) it was above 1000 nM; in experiment [3], 50 to 500 nM; in experiment [4], 50 to 500 nM; in experiment [5], above 1000 nM; in experiment [6], above 10000 nM. Further, the “MTAP intact/deleted ratio” value in experiment [2] was “C (an IC50 ratio of less than 3 fold)”.

Consider `Cc1cc([C@@H]2CC[C@@H](C)CN2C(=O)C(=O)Nc2cncc(C(N)=O)c2)ccc1OC1CCOC1` (mixture of isomers) [Compound 171, rac-5-{2-[(2R,5S)-5-Methyl-2-[3-methyl-4-(oxolan-3-yloxy)phenyl]piperidin-1-yl]-2-oxoacetamido}pyridine-3-carboxamide], for which the IC50 was 50 to 500 nM in experiment [1] (setting [7]); below 100 nM in experiment [2] (setting [8]); below 50 nM in experiment [3]; 50 to 500 nM in experiment [4]; above 1000 nM in experiment [5]; 1000 to 10000 nM in experiment [6]. Further, the “MTAP intact/deleted ratio” value in experiment [2] is on record as “A (an IC50 ratio greater than or equal to 10 fold)”.

As for `C[C@@H]1CC[C@@H](C2CCCC2)N(C(=O)C(=O)Nc2cncc(C(N)=O)c2)C1` (racemic) [Compound 172, 5-(2-(2-cyclopentyl-5-methylpiperidin-1-yl)-2-oxoacetamido)nicotinamide], the IC50 in experiment [1] (setting [7]) is 50 to 500 nM; in experiment [2] (setting [8]), 100 to 1000 nM; in experiment [3], below 50 nM; in experiment [4], 50 to 500 nM; in experiment [5], above 1000 nM; in experiment [6], above 10000 nM. Besides, in experiment [2], the “MTAP intact/deleted ratio” value is “A (an IC50 ratio greater than or equal to 10 fold)”.

As for `Cc1cc([C@@H]2CC[C@@H](C)CN2C(=O)C(=O)Nc2cncc(C(N)=O)c2)ccc1Cl` (racemic) [Compound 173, rac-5-{2-[(2R,5S)-2-(4-Chloro-3-methylphenyl)-5-methylpiperidin-1-yl]-2-oxoacetamido}pyridine-3-carboxamide], the IC50 in experiment [1] (setting [7]) is 50 to 500 nM; in experiment [2] (setting [8]), below 100 nM; in experiment [3], below 50 nM; in experiment [4], 50 to 500 nM; in experiment [5] it was above 1000 nM; in experiment [6] it was 1000 to 10000 nM. In addition, in experiment [2], the “MTAP intact/deleted ratio” value was “A (an IC50 ratio greater than or equal to 10 fold)”.

On to `C[C@@H]1CC[C@@H](c2cccc(Cl)c2)N(C(=O)C(=O)Nc2cncc(C(N)=O)c2)C1` (racemic) [Compound 174, rac-5-{2-[(2R,5S)-2-(3-Chlorophenyl)-5-methylpiperidin-1-yl]-2-oxoacetamido}pyridine-3-carboxamide], for which the IC50 in experiment [1] (read-out: No Cofactor/rel IC50) is 50 to 500 nM; in experiment [2] (setting [9]) it was below 100 nM; in experiment [3] it was below 50 nM; in experiment [4], 50 to 500 nM; in experiment [5] it was above 1000 nM; in experiment [6], 1000 to 10000 nM. Also, in experiment [2], the MTAP intact/deleted ratio entry was “A (an IC50 ratio greater than or equal to 10 fold)”.

Regarding `Cc1cc(NC(=O)C(=O)N2C[C@H](C)CC[C@@H]2C2CCCCC2)cnc1N` (racemic) [Compound 175, N-(6-amino-5-methyl-3-pyridyl)-2-[(2R,5R)-2-cyclohexyl-5-methyl-1-piperidyl]-2-oxo-acetamide], the IC50 was above 500 nM in experiment [1] (read-out: No Cofactor/rel IC50); above 1000 nM in experiment [2] (setting [9]); 50 to 500 nM in experiment [3]; above 500 nM in experiment [4]; above 1000 nM in experiment [5]; above 10000 nM in experiment [6]. Besides, the MTAP intact/deleted ratio entry in experiment [2] was “B (an IC50 ratio greater than or equal to 3 fold but lower than 10 fold)”.

Consider `CC(C)[C@@H]1CC[C@@H](C)CN1C(=O)C(=O)Nc1cncc(C(N)=O)c1` (racemic) [Compound 176, 5-[[2-[(2S,5R)-2-isopropyl-5-methyl-1-piperidyl]-2-oxo-acetyl]amino]pyridine-3-carboxamide], for which the IC50 was 50 to 500 nM in experiment [1] (read-out: No Cofactor/rel IC50); 100 to 1000 nM in experiment [2] (setting [9]); below 50 nM in experiment [3]; 50 to 500 nM in experiment [4]; above 1000 nM in experiment [5]; above 10000 nM in experiment [6]. The MTAP intact/deleted ratio result in experiment [2] is reported as “A (an IC50 ratio greater than or equal to 10 fold)”.

On to `Cc1cc(NC(=O)C(=O)N2C[C@H](C(F)(F)F)CC[C@H]2c2ccccc2)cnc1N` (racemic) [Compound 177, rac-N-(6-amino-5-methylpyridin-3-yl)-2-oxo-2-((2R,5S)-2-phenyl-5-(trifluoromethyl)piperidin-1-yl)acetamide], for which the IC50 in experiment [1] (read-out: No Cofactor/rel IC50) was 50 to 500 nM; in experiment [2] (setting [9]), above 1000 nM; in experiment [3], 50 to 500 nM; in experiment [4], 50 to 500 nM; in experiment [5], above 1000 nM; in experiment [6] it was above 10000 nM. Also, in experiment [2], the MTAP intact/deleted ratio result is on record as “B (an IC50 ratio greater than or equal to 3 fold but lower than 10 fold)”.

In the case of `Cc1ccc([C@@H]2CC[C@@H](C)CN2C(=O)C(=O)Nc2cncc(C(N)=O)c2)cc1Cl` (racemic) [Compound 179, rac-5-{2-[(2R,5S)-2-(3-Chloro-4-methylphenyl)-5-methylpiperidin-1-yl]-2-oxoacetamido}pyridine-3-carboxamide], the IC50 in experiment [1] (read-out: No Cofactor/rel IC50) was 50 to 500 nM; in experiment [2] (setting [9]), below 100 nM; in experiment [3], below 50 nM; in experiment [4], 50 to 500 nM; in experiment [5], above 1000 nM; in experiment [6] it was 1000 to 10000 nM. For the same compound, the MTAP intact/deleted ratio entry in experiment [2] is listed as “A (an IC50 ratio greater than or equal to 10 fold)”.

Values taken from US11999727B2 (Tango Therapeutics, Inc., priority 2020, dated 2024).
